Values quoted from earlier work, collected in patent US11642308B2, “Ready to use liquid formulation” (priority 2020, dated 2023).

Details: ≈25° C. and ≈1 bar

solubility in water: about 40 mg/L
Structure (SMILES): O=O [oxygen]
